Experimental data reported in ChEMBL document CHEMBL4507310, “Data for DCP probe A-1211212” (2021).

Columns and labels:
[1] = target: Substance-P receptor (Homo sapiens) (UniProt P25103); test: NK1 (h) Eurofins-Cerep binding assay; design: ligand concentration 0.05 nM; conditions: filed as agonist, Compound concentration 10.0 uM
[2] = target: Homeodomain-interacting protein kinase 2 (Homo sapiens) (UniProt Q9H2X6); conditions: Compound concentration 1000.0 nM
[3] = target: Serine/threonine-protein kinase Chk1 (Homo sapiens) (UniProt O14757); conditions: Compound concentration 1000.0 nM
Serine/threonine-protein kinase Chk1 (Homo sapiens), sequence (O14757 whole entry): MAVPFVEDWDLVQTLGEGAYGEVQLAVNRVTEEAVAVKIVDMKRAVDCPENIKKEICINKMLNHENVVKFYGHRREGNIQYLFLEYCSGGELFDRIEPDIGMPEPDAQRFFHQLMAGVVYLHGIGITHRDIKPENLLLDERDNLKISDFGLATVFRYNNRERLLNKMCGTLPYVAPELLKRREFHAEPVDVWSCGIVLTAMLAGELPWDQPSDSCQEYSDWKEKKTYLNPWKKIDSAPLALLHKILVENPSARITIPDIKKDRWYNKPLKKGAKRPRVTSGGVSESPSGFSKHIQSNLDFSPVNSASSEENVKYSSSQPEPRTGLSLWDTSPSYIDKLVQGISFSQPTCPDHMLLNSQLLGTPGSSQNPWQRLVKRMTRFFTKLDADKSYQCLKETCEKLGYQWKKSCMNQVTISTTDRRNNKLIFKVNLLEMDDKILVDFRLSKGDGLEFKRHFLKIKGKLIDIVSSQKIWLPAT

[4] = target: Mitogen-activated protein kinase 8 (Homo sapiens) (UniProt P45983); conditions: Compound concentration 1000.0 nM
[5] = target: Fibroblast growth factor receptor 4 (Homo sapiens) (UniProt P22455); conditions: Compound concentration 1000.0 nM
[6] = target: Sodium-dependent serotonin transporter (Homo sapiens) (UniProt P31645); conditions: Compound concentration 10.0 uM
[7] = target: Serine/threonine-protein kinase SIK3 (Homo sapiens) (UniProt Q9Y2K2); conditions: Compound concentration 1000.0 nM
[8] = target: Adenosine receptor A2b (Homo sapiens) (UniProt P29275); test: A2B (h) Eurofins-Cerep binding assay; design: ligand concentration 5 nM; conditions: filed as antagonist, Compound concentration 10.0 uM
Adenosine receptor A2b (Homo sapiens), sequence (P29275 whole entry, the tested form may be a part): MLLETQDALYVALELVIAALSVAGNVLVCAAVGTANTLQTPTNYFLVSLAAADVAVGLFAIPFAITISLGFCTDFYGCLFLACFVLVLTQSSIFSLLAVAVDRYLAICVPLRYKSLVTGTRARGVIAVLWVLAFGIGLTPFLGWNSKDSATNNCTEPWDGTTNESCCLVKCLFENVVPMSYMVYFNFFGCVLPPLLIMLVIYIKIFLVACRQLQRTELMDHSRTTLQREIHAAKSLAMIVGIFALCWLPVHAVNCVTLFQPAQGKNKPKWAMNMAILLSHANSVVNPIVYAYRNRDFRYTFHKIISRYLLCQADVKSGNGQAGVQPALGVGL

[9] = target: Epithelial discoidin domain-containing receptor 1 (Homo sapiens) (UniProt Q08345); conditions: Compound concentration 1000.0 nM
[10] = target: Misshapen-like kinase 1 (Homo sapiens) (UniProt Q8N4C8); conditions: Compound concentration 1000.0 nM
Misshapen-like kinase 1 (Homo sapiens), sequence (Q8N4C8 whole entry, looked up): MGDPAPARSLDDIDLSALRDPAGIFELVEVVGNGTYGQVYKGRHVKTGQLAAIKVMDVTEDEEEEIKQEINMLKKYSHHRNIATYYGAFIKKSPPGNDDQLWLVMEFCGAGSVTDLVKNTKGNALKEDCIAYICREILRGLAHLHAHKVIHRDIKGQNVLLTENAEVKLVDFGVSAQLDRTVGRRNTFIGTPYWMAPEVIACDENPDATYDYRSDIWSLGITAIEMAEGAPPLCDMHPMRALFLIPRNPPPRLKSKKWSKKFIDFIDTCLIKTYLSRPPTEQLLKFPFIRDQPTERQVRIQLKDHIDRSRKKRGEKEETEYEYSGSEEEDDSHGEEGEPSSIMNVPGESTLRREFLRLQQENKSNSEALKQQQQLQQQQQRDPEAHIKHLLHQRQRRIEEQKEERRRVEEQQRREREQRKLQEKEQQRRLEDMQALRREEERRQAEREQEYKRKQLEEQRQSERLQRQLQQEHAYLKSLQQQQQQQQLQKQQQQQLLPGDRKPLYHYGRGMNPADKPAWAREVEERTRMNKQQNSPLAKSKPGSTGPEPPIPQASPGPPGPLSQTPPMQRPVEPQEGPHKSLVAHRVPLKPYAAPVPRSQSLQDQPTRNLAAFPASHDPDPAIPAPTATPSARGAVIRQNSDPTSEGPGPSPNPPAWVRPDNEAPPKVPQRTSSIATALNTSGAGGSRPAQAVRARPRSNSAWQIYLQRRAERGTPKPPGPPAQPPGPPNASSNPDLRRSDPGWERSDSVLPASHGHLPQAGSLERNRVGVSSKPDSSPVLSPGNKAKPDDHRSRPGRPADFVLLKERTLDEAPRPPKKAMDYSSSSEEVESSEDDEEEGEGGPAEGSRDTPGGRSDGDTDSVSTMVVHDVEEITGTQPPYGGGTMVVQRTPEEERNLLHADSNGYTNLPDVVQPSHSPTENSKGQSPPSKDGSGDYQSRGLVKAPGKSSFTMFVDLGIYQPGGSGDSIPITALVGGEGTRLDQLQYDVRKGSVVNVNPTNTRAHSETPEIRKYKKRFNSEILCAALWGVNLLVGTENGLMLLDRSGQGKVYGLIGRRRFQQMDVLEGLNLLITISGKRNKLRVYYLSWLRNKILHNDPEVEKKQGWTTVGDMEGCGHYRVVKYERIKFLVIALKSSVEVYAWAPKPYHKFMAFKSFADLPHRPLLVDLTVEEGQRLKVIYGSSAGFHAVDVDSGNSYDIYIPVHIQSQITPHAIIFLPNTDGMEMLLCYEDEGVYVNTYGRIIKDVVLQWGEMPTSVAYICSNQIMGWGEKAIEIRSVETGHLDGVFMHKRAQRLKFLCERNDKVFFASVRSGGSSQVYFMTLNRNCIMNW

[11] = system: Tyrosine-protein kinase ABL1 (Homo sapiens), P00519 [H396P]; conditions: Compound concentration 1000.0 nM
[12] = system: Phosphatidylinositol 4,5-bisphosphate 3-kinase catalytic subunit alpha isoform (Homo sapiens), P42336 [M1043I]; conditions: Compound concentration 1000.0 nM
[13] = target: Inhibitor of nuclear factor kappa-B kinase subunit epsilon (Homo sapiens) (UniProt Q14164); conditions: Compound concentration 1000.0 nM
[14] = target: Serine/threonine-protein kinase haspin (Homo sapiens) (UniProt Q8TF76); conditions: Compound concentration 1000.0 nM
[15] = target: Calcium/calmodulin-dependent protein kinase type II subunit beta (Homo sapiens) (UniProt Q13554); conditions: Compound concentration 1000.0 nM
[16] = target: Wee1-like protein kinase 2 (Homo sapiens) (UniProt P0C1S8); conditions: Compound concentration 1000.0 nM
[17] = target: Phosphatidylinositol 4-phosphate 5-kinase type-1 gamma (Homo sapiens) (UniProt O60331); conditions: Compound concentration 1000.0 nM
[18] = target: 5-hydroxytryptamine receptor 1B (Homo sapiens) (UniProt P28222); conditions: Compound concentration 10.0 uM
[19] = target: Cannabinoid receptor 1 (Homo sapiens) (UniProt P21554); test: CB1 (h) Eurofins-Cerep binding assay; design: ligand concentration 0.5 nM; conditions: filed as agonist, Compound concentration 10.0 uM
[20] = target: Serine/threonine-protein kinase Nek6 (Homo sapiens) (UniProt Q9HC98); conditions: Compound concentration 1000.0 nM
Serine/threonine-protein kinase Nek6 (Homo sapiens), sequence (Q9HC98 whole entry): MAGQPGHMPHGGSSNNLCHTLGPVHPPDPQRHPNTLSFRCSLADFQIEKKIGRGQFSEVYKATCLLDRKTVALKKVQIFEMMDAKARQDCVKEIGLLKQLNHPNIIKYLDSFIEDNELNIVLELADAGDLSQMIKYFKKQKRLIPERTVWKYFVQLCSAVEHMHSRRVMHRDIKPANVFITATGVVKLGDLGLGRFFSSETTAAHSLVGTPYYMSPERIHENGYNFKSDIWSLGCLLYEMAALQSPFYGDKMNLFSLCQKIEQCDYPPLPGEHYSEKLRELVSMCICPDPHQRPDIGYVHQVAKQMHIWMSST

[21] = target: Myosin light chain kinase (Homo sapiens) (UniProt Q32MK0); conditions: Compound concentration 1000.0 nM
Myosin light chain kinase (Homo sapiens), sequence (Q32MK0 whole entry): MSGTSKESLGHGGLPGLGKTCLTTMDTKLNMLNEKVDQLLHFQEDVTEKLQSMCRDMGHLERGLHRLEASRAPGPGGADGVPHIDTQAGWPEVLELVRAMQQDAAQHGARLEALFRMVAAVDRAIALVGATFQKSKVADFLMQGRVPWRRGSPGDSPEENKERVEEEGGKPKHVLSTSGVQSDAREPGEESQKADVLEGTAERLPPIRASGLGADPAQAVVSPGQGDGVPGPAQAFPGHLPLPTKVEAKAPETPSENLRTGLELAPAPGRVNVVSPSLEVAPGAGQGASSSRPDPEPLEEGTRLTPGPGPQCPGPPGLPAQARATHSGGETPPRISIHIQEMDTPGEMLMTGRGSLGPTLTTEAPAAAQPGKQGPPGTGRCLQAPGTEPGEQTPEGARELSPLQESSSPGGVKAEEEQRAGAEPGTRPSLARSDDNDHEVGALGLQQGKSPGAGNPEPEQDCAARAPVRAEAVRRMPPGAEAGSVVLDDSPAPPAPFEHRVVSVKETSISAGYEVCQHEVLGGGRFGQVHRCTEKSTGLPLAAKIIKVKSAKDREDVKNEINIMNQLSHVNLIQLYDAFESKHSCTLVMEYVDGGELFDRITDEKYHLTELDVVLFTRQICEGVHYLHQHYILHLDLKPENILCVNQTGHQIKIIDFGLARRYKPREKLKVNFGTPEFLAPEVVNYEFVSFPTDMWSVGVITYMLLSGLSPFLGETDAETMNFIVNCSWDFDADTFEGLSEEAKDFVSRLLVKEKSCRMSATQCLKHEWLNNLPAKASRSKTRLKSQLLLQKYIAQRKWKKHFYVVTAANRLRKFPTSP

[22] = target: 5'-AMP-activated protein kinase catalytic subunit alpha-1 (Homo sapiens) (UniProt Q13131); conditions: Compound concentration 1000.0 nM
[23] = target: Macrophage colony-stimulating factor 1 receptor (Homo sapiens) (UniProt P07333); conditions: Compound concentration 1000.0 nM
[24] = target: T1, Alpha-1B adrenergic receptor (Homo sapiens) (UniProt P35368); conditions: Compound concentration 10.0 uM
T1 sequence (whole entry): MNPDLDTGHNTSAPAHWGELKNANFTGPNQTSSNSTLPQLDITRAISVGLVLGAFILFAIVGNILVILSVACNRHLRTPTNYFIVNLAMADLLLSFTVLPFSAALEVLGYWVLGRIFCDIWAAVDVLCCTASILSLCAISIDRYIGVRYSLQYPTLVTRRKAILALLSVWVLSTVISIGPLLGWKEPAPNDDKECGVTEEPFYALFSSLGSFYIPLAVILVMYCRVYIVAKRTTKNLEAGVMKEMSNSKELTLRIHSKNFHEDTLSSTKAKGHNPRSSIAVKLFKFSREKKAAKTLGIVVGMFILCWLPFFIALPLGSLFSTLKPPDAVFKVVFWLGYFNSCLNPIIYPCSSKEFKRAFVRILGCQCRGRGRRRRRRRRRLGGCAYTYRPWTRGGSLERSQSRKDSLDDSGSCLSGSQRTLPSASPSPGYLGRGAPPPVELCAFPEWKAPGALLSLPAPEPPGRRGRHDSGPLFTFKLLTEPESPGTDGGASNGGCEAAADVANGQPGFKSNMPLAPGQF

[25] = target: Cyclin-dependent kinase 2 (Homo sapiens) (UniProt P24941); conditions: Compound concentration 1000.0 nM
[26] = target: Serine/threonine-protein kinase PAK 3 (Homo sapiens) (UniProt O75914); conditions: Compound concentration 1000.0 nM
Serine/threonine-protein kinase PAK 3 (Homo sapiens), sequence (O75914 whole entry, looked up): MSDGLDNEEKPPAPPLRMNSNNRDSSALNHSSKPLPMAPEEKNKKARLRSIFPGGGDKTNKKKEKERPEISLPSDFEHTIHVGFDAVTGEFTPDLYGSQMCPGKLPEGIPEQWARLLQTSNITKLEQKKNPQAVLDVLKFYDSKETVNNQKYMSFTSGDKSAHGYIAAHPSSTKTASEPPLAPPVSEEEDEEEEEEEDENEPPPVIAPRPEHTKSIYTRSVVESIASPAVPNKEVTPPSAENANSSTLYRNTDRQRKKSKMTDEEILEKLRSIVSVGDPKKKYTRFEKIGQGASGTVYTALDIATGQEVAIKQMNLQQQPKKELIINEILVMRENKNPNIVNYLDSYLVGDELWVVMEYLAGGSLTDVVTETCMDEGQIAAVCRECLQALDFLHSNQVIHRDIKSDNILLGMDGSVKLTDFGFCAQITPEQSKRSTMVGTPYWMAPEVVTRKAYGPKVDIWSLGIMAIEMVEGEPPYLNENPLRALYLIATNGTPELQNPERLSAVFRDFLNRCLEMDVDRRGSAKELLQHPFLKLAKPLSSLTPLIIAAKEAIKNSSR

[27] = target: Glutamate NMDA receptor (Rattus norvegicus) (UniProt P35439+Q00959+Q00960+Q00961+Q62645+Q8VHN2+Q9R1M7); test: NMDA Eurofins-Cerep binding assay; assay type: protein-complex assay; design: ligand concentration 5 nM; conditions: filed as antagonist, Compound concentration 10.0 uM
[28] = target: Myosin light chain kinase 2, skeletal/cardiac muscle (Homo sapiens) (UniProt Q9H1R3); conditions: Compound concentration 1000.0 nM
[29] = target: Activin receptor type-1-like (Homo sapiens) (UniProt P37023); conditions: Compound concentration 1000.0 nM
[30] = target: T2, Muscarinic acetylcholine receptor M4 (Homo sapiens) (UniProt P08173); test: M4 (h) Eurofins-Cerep binding assay; design: ligand concentration 0.2 nM; conditions: filed as antagonist, Compound concentration 10.0 uM
T2 sequence (whole entry): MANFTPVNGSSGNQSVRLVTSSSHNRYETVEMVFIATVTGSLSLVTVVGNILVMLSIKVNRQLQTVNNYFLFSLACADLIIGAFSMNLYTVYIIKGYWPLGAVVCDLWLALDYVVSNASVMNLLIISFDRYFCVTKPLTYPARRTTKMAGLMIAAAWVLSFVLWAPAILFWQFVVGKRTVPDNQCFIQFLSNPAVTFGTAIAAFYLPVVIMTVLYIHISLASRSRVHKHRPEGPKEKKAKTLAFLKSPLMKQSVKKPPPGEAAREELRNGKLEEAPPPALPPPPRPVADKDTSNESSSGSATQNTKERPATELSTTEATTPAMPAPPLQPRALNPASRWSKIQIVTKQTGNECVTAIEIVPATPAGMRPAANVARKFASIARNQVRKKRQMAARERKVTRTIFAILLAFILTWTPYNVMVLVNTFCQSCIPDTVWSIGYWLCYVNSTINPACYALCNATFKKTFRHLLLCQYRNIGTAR

[31] = target: Mitogen-activated protein kinase kinase kinase 15 (Homo sapiens) (UniProt Q6ZN16); conditions: Compound concentration 1000.0 nM

Homeodomain-interacting protein kinase 2 (Homo sapiens), sequence (Q9H2X6 whole entry, looked up): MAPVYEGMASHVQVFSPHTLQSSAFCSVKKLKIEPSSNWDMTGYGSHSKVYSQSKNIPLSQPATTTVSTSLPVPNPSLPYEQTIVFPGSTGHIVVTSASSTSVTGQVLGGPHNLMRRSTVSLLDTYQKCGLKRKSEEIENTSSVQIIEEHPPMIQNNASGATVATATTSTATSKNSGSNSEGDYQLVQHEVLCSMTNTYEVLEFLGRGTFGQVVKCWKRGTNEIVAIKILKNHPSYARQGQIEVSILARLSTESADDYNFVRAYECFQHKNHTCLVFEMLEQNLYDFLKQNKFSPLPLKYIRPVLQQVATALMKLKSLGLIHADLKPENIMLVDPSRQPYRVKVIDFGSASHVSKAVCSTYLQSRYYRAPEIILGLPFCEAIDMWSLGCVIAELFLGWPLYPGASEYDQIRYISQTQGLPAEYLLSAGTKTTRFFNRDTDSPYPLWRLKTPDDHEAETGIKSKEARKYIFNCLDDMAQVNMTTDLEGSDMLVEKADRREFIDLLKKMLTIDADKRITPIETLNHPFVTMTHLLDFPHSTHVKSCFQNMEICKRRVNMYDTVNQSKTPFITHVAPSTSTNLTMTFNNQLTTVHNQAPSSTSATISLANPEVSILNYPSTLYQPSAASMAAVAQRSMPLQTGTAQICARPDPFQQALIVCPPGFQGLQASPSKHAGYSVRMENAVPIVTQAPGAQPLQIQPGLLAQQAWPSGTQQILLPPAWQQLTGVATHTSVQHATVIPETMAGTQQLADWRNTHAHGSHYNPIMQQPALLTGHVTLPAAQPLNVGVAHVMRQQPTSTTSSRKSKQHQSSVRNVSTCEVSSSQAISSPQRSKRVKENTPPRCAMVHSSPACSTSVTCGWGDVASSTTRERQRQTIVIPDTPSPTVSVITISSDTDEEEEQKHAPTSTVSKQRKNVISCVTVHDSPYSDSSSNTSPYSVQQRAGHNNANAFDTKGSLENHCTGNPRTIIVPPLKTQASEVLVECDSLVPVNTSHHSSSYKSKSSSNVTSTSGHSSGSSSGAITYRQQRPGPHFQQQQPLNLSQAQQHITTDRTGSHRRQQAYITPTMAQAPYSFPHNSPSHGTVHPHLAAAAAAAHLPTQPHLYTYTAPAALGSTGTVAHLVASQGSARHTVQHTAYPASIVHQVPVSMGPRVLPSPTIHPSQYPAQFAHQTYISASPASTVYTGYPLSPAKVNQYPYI

Row | SMILES | % Inhibition of Control Specific Binding (Mean n=2) [1] [%] | residual activity [2] [%] | residual activity [3] [%] | residual activity [4] [%] | residual activity [5] [%] | inhibition [6] [%] | residual activity [7] [%] | % Inhibition of Control Specific Binding (Mean n=2) [8] [%] | residual activity [9] [%] | residual activity [10] [%] | residual activity [11] [%] | residual activity [12] [%] | residual activity [13] [%] | residual activity [14] [%] | residual activity [15] [%] | residual activity [16] [%] | residual activity [17] [%] | inhibition [18] [%] | % Inhibition of Control Specific Binding (Mean n=2) [19] [%] | residual activity [20] [%] | also measured
1 | O=C(NS(=O)(=O)c1ccc(NCC2CCOCC2)c([N+](=O)[O-])c1)c1ccc(N2CCN(Cc3ccc(C(F)(F)F)cc3-c3ccc(Cl)cc3)CC2)cc1Oc1cnc2[nH]ccc2c1 [A-1210227] | -284 | 100 | 100 | 78 | 96 | -8.19 | 76 | -10.1 | 100 | 84 | 92 | 51 | 65 | 85 | 96 | 100 | 100 | -6.15 | -13.7 | 89 | residual activity [21]: 100%; residual activity [22]: 84%; residual activity [23]: 85%; inhibition [24]: 12.3%; residual activity [25]: 100%; residual activity [26]: 77%; % Inhibition of Control Specific Binding (Mean n=2) [27]: -7.6%; residual activity [28]: 77%; residual activity [29]: 77%; % Inhibition of Control Specific Binding (Mean n=2) [30]: 12.3%; residual activity [31]: 84%
2 | CO[C@H]1CC[C@H](CNc2ccc(S(=O)(=O)NC(=O)c3ccc(N4CCN(CC5=C(c6ccc(Cl)cc6)CC(C)(C)CC5)CC4)cc3Oc3cnc4[nH]ccc4c3)cc2[N+](=O)[O-])CC1 [A-1211212] | -60.6 | 100 | 90 | 82 | 87 | 25.1 | 89 | -36.3 | 99 | 88 | 94 | 74 | 100 | 88 | 80 | 81 | 100 | 6.23 | -6.4 | 89 | residual activity [21]: 100%; residual activity [22]: 73%; residual activity [23]: 88%; inhibition [24]: 1.2%; residual activity [25]: 100%; residual activity [26]: 64%; % Inhibition of Control Specific Binding (Mean n=2) [27]: -3.3%; residual activity [28]: 66%; residual activity [29]: 72%; % Inhibition of Control Specific Binding (Mean n=2) [30]: 20.6%; residual activity [31]: 100%
